{"source": "patent US20250241901A1", "about": "“ACTIVATION OF MNRR1 / CHCHD2 AS A THERAPEUTIC TARGET FOR MITOCHONDRIA ASSOCIATED DISORDERS” (Wayne State University, priority 2024, published 2025)", "key": {"MNRR1": {"tested_on": "MNRR1", "assay": "MNRR1 immunofluorescence in MDAMB468 cells", "assay_type": "cell-based, human", "settings": "MDAMB468, 10 μM, 24 h", "description": "FIGS. 4A-4B: High throughput screen to identify MNRR1 activators. FIG. 4A: Campaign view representing compounds that activate MNRR1. Control levels are represented as a dotted line. Each compounds is shown as a small dot and nitazoxanide is highlighted as a large dot. FIG. 4B: MDAMB468 cells treated with Vehicle (DMSO) or nitazoxanide (10 μM) for 24 h were immunostained (MNRR1=orange, DAPI=blue) and imaged at 63λ using a confocal microscope. The scale bar represents 200 μm.\nImmunofluorescence: Cells plated on glass cover slips were fixed with 3.7% formaldehyde (prepared in 1× PBS) at room temperature for 15 min, followed by permeabilization with 0.15% Triton X-100 (prepared in distilled water) for 2 min, and then blocked with 5% bovine serum albumin (BSA) (prepared in 1× PBS, 0.1% TWEEN-20 (PBST)) for 1 h at room temperature. Cells were washed with PBST then incubated for 1 h at room temperature in primary antibody solution containing Coralite® 594 conjugated mouse monoclonal anti-CHCHD2 IgG (1:100, Proteintech, Cat. No. CL594-66302) prepared in PBST. Cells were washed 3 times with PBST for 5 min each and mounted with Vectashield vibrance with DAPI (Cat. #H-1800-10, Vector Labs, Newark, CA). […] Corrected total fluorescence for each field to determine MNRR1 content was calculated using FIJI (National Institutes of Health)."}, "TNF transcription": {"tested_on": "TNF transcription", "assay": "TNF transcript levels in LPS-treated HTR8 cells (real-time PCR)", "assay_type": "cell-based, human", "description": "FIGS. 1A-1D. Nitazoxanide's anti-inflammatory effects are via transcriptional activation of MNRR1. (FIG. 1A) Results of a screen of ˜2400 FDA-approved drugs and natural compounds identified to transcriptionally activate (>1), inhibit (<1), or not affect (=1) MNRR1. Each circle represents one drug and the MNRR1 activator (nitazoxanide (N)) has been highlighted in green. (FIG. 1B) Equal numbers of HTR cells overexpressing the MNRR1-luciferase reporter were plated on a 96 well plate and treated with increasing amounts of nitazoxanide or vehicle (DMSO) for 24 h. EC50 was calculated using the activation of MNRR1 reporter relative to vehicle treated cells using the Quest Graph^TM EC50 Calculator. (FIG. 1C) TNF transcript levels were measured in human placental cells. Actin was used as a housekeeping gene for normalization. Abbreviations: WT, MNRR1-WT; MNRR1-KO, knockout of MNRR1; C, control (water); LPS, lipopolysaccharide; N, nitazoxanide; KO+WT-MNRR1, knockout cells +MNRR1−WT overexpression. n=4 biological replicates; significance: *, p-value<0.05; ns is non-significant. […]\nReal-time polymerase chain reaction: Total cellular RNA was extracted from mouse placental tissues or HTR8 cells by using a RNeasy Plus Mini Kit (Qiagen, Germantown, MD, USA), according to the manufacturer's instructions. […] Transcript levels were measured by real-time PCR by using SYBR green on an ABI 7500 system. […]"}}}
{"smiles": "CC(=O)Oc1ccccc1C(=O)Nc1ncc([N+](=O)[O-])s1", "note": "[nitazoxanide, Nitazoxanide]", "values": [{"measurement": "MNRR1 level", "setting": "MNRR1", "result": "increase of MNRR1"}, {"measurement": "LPS-induced activation of TNF transcription", "setting": "TNF transcription; HTR8 cells, MNRR1-WT", "result": "reduced to control levels in an MNRR1-dependent fashion"}, {"measurement": "anti-inflammatory benefit (TNF transcript) in MNRR1 knockout cells", "setting": "TNF transcription; MNRR1 knockout cells", "result": "no nitazoxanide-mediated benefit"}]}
